Measured values taken from patent US20230024096A1, “BIFUNCTIONAL COMPOUNDS FOR THE TREATMENT OF CANCER” (Hoffmann-La Roche Inc., priority 2019, published 2023).

Target: T1, SMARCA2 (Homo sapiens, UniProt P51531)
T1 construct: endogenous in cells; host or cells: HT1080 (CRISPR HiBiT knock-in clone, generated in house)
Assay: SMARCA2 HiBiT degradation assay (cellular)
Assay type: cell-based
Conditions: table head names A549; for DC50: 6 h incubation, HiBiT-tagged SMARCA2, luminescence read-out, read-out: HiBit A549 SMARCA2 IP (nM) 6 h; for Emax: A549, 6 h incubation, Emax = amount of residual protein remaining in the cell following compound treatment

T1 sequence (P51531 whole entry): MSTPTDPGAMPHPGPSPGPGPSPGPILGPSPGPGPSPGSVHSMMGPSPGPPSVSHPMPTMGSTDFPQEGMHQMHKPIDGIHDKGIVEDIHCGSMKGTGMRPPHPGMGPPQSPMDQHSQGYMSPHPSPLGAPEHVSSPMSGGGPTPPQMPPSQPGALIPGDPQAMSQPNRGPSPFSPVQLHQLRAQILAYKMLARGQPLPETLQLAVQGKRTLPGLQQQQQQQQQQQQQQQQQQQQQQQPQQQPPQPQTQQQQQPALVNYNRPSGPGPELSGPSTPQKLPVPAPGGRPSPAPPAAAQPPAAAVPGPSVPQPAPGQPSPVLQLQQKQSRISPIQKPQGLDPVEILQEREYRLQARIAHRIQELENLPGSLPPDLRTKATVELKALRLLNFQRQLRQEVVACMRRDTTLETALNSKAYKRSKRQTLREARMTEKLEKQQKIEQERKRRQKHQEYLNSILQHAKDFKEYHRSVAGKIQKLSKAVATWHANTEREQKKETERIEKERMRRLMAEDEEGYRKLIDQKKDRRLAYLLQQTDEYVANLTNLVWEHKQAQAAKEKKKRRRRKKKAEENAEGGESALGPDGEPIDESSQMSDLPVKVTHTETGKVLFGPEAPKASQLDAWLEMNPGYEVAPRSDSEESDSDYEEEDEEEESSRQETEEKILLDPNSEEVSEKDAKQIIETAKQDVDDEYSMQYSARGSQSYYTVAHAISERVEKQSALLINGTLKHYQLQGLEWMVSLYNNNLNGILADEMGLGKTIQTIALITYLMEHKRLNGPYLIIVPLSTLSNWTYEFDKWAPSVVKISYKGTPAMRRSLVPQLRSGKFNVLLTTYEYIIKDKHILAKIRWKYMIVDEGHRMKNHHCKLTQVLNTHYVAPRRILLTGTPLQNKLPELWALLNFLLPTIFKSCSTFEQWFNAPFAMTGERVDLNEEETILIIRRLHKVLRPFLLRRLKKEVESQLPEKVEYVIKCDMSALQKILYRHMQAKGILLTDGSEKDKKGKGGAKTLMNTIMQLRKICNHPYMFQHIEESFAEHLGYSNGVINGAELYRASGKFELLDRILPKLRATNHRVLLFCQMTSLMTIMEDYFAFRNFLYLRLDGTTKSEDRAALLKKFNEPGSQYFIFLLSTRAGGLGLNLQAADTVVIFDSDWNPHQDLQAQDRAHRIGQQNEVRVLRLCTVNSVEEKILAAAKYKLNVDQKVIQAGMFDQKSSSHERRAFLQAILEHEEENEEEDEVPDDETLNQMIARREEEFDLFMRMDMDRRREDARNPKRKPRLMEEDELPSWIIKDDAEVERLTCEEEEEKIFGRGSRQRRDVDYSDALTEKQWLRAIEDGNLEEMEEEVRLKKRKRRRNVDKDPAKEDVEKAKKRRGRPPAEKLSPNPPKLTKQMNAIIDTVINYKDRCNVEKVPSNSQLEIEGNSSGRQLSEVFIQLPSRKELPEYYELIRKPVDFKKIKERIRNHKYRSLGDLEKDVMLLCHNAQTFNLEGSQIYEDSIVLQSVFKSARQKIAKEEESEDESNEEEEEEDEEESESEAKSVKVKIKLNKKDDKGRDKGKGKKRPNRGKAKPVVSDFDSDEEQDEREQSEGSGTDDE

| Compound | DC50 [nM] | Emax [%] |
| --- | --- | --- |
| Nc1nnc(-c2ccccc2O)cc1N1CC2CCC(C1)N2c1cccc(CN2CCN(C(=O)CN3CCC(c4ccc(OC5CCC(=O)NC5=O)cc4)CC3)CC2)c1 (racemic) [Example 148, rac-3-[4-[1-[2-[4-[[3-[3-[3-Amino-6-(2-hydroxyphenyl)pyridazin-4-yl]-3,8-diazabicyclo[3.2.1]octan-8-yl]phenyl]methyl]piperazin-1-yl]-2-oxo-ethyl]-4-piperidyl]phenoxy]piperidine-2,6-dione] | 25 | 33 |
| Nc1nnc(-c2ccccc2O)cc1N1CC2CCC(C1)N2c1cccc(OCCN2CCN(C(=O)CCCNC(=O)COc3cccc4c3C(=O)N(C3CCC(=O)NC3=O)C4=O)CC2)c1 (racemic) [Example 17, rac-N-[4-[4-[2-[3-[3-[3-amino-6-(2-hydroxyphenyl)pyridazin-4-yl]-3,8-diazabicyclo[3.2.1]octan-8-yl]phenoxy]ethyl]piperazin-1-yl]-4-oxo-butyl]-2-[2-(2,6-dioxo-3-piperidyl)-1,3-dioxo-isoindolin-4-yl]oxy-acetamide] | 1440 | 64 |
| Nc1nnc(-c2ccccc2O)cc1N1CC2CCC(C1)N2c1cccc(OCCN2CCN(C(=O)N3CC4(C3)CN(c3ccc5c(c3)C(=O)N(C3CCC(=O)NC3=O)C5=O)C4)CC2)c1 (racemic) [Example 69, rac-5-[2-[4-[2-[3-[3-[3-amino-6-(2-hydroxyphenyl)pyridazin-4-yl]-3,8-diazabicyclo[3.2.1]octan-8-yl]phenoxy]ethyl]piperazine-1-carbonyl]-2,6-diazaspiro[3.3]heptan-6-yl]-2-(2,6-dioxo-3-piperidyl)isoindoline-1,3-dione] | 16 | 48 |
| Nc1nnc(-c2ccccc2O)cc1N1CCC(NC(=O)CCCN2CCC(c3ccc(OC4CCC(=O)NC4=O)cc3)CC2)(c2ccccc2)CC1 (stereo not drawn) [Example 151, N-[1-[3-amino-6-(2-hydroxyphenyl)pyridazin-4-yl]-4-phenyl-4-piperidyl]-4-[4-[4-[(2,6-dioxo-3-piperidyl)oxy]phenyl]-1-piperidyl]butanamide] | 855 | 54 |
| Nc1nnc(-c2ccccc2O)cc1N1CC2CCC(C1)N2c1cccc(OCCN2CCN(CCCOC3CCN(c4ccc5c(c4)C(=O)N(C4CCC(=O)NC4=O)C5=O)CC3)CC2)c1 (racemic) [Example 36, rac-5-[4-[3-[4-[2-[3-[3-[3-amino-6-(2-hydroxyphenyl)pyridazin-4-yl]-3,8-diazabicyclo[3.2.1]octan-8-yl]phenoxy]ethyl]piperazin-1-yl]propoxy]-1-piperidyl]-2-(2,6-dioxo-3-piperidyl)isoindoline-1,3-dione] | 16 | 27 |
| Nc1nnc(-c2ccccc2O)cc1N1CC2CCC(C1)N2c1cccc(OC2CCN(C(=O)CN3CCC(c4ccc(NC5CCC(=O)NC5=O)cc4)CC3)CC2)c1 (racemic) [Example 114, rac-3-[4-[1-[2-[4-[3-[3-[3-amino-6-(2-hydroxyphenyl)pyridazin-4-yl]-3,8-diazabicyclo[3.2.1]octan-8-yl]phenoxy]-1-piperidyl]-2-oxo-ethyl]-4-piperidyl]anilino]piperidine-2,6-dione] | 82 | 40 |
| Nc1nnc(-c2ccccc2O)cc1O[C@H]1CCCN(c2ccc(N3CCN(CCCCCCCCCn4cc(CNc5cccc6c5C(=O)N(C5CCC(=O)NC5=O)C6=O)nn4)CC3)cc2)C1 (mixture of isomers) [Example 66, 2-(2,6-dioxo-3-piperidyl)-4-[[1-[9-[4-[4-[rac-(3S)-3-[3-amino-6-(2-hydroxyphenyl)pyridazin-4-yl]oxy-1-piperidyl]phenyl]piperazin-1-yl]nonyl]triazol-4-yl]methylamino]isoindoline-1,3-dione] | 144 | 60 |
| Nc1nnc(-c2ccccc2O)cc1N1CCC(NC(=O)CCCN2CCC(c3ccc(NC4CCC(=O)NC4=O)cc3)CC2)(c2ccccc2)CC1 (stereo not drawn) [Example 91, N-[1-[3-amino-6-(2-hydroxyphenyl)pyridazin-4-yl]-4-phenyl-4-piperidyl]-4-[4-[4-[(2,6-dioxo-3-piperidyl)amino]phenyl]-1-piperidyl]butanamide] | 90 | 46 |

The remaining lines, values ahead:

| DC50 [nM] | Emax [%] | Compound |
| --- | --- | --- |
| 275 | 42 | Nc1nnc(-c2ccccc2O)cc1O[C@H]1CCCN(c2ccc(N3CCN(CC4CCN(C(=O)CCCCn5cc(COc6cccc7c6C(=O)N(C6CCC(=O)NC6=O)C7=O)nn5)CC4)CC3)cc2)C1 (mixture of isomers) [Example 140, 2-(2,6-dioxo-3-piperidyl)-4-[[1-[5-oxo-5-[4-[[4-[4-[rac-(3S)-3-[3-amino-6-(2-hydroxyphenyl)pyridazin-4-yl]oxy-1-piperidyl]phenyl]piperazin-1-yl]methyl]-1-piperidyl]pentyl]triazol-4-yl]methoxy]isoindoline-1,3-dione] |
|  | 26 | Nc1nnc(-c2ccccc2O)cc1N1CCN(c2cccc(CN3CCN(C(=O)C4CCN(c5ccc6c(c5)C(=O)N(C5CCC(=O)NC5=O)C6=O)CC4)CC3)c2)C2(CC2)C1 (stereo not drawn) [Example 127, 5-(4-(4-(3-(7-(3-amino-6-(2-hydroxyphenyl)pyridazin-4-yl)-4,7-diazaspiro[2.5]octan-4-yl)benzyl)piperazine-1-carbonyl)piperidin-1-yl)-2-(2,6-dioxopiperidin-3-yl)isoindoline-1,3-dione] |
| 273 | 59 | Nc1nnc(-c2ccccc2O)cc1N1CCC2(CC1)CN(c1cccc(OCCN3CCN(C(=O)C4CCN(c5ccc6c(c5)C(=O)N(C5CCC(=O)NC5=O)C6=O)CC4)CC3)c1)CCO2 (stereo not drawn) [Example 83, 5-(4-(4-(2-(3-(9-(3-amino-6-(2-hydroxyphenyl)pyridazin-4-yl)-1-oxa-4,9-diazaspiro[5.5]undecan-4-yl)phenoxy)ethyl)piperazine-1-carbonyl)piperidin-1-yl)-2-(2,6-dioxopiperidin-3-yl)isoindoline-1,3-dione] |
| 659 | 30 | Nc1nnc(-c2ccccc2O)cc1OCC(CNC(=O)C1CCN(c2ccc3c(c2)C(=O)N(C2CCC(=O)NC2=O)C3=O)CC1)c1ccccc1 (racemic) [Example 97, N-[3-[3-amino-6-(2-hydroxyphenyl)pyridazin-4-yl]oxy-2-phenyl-propyl]-1-[2-(2,6-dioxo-3-piperidyl)-1,3-dioxo-isoindolin-5-yl]piperidine-4-carboxamide (racemic mixture of diastereomers)] |
| 326 | 46 | Nc1nnc(-c2ccccc2O)cc1N1CCC(CNC(=O)C2CCN(c3cccc4c3C(=O)N(C3CCC(=O)NC3=O)C4=O)CC2)(c2ccccc2)CC1 (stereo not drawn) [Example 71, N-[[1-[3-amino-6-(2-hydroxyphenyl)pyridazin-4-yl]-4-phenyl-4-piperidyl]methyl]-1-[2-(2,6-dioxo-3-piperidyl)-1,3-dioxo-isoindolin-4-yl]piperidine-4-carboxamide] |
| 124 | 33 | Nc1nnc(-c2ccccc2O)cc1O[C@@H]1CCCN(c2ccc(N3CCN(C(=O)CCCCCCCCn4cc(CNc5cccc6c5C(=O)N(C5CCC(=O)NC5=O)C6=O)nn4)CC3)cc2)C1 (mixture of isomers) [Example 62, 2-(2,6-dioxo-3-piperidyl)-4-[[1-[9-oxo-9-[4-[4-[rac-(3R)-3-[3-amino-6-(2-hydroxyphenyl)pyridazin-4-yl]oxy-1-piperidyl]phenyl]piperazin-1-yl]nonyl]triazol-4-yl]methylamino]isoindoline-1,3-dione] |
